According to PubChem BioAssay (NCI):
Where “and” joins values, the source holds several entries; their conditions need not be identical. Identical values can stand only once.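 Exposure lasted 48 hours, with cells grown in 96-well plates and compounds tested at five concentrations. GI50 marks 50% less growth. At the TGI there is no net growth.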

What follows are compounds tested on UO-31 renal (assay: NCI anticancer screen, dose series, 48 h).
Work on `COc1cc(/C=C2\C(=O)N(c3ccccc3)C(c3ccccc3)S2(=O)=O)cc(OC)c1OC` (centres undefined) yielded a TGI greater than 100 µM.
With `COc1ccc2ccccc2c1/C=C/C(=O)c1ccccc1` the TGI was 9.36 µM.
Compound `O=C1CSC(c2cccc(Oc3ccccc3)c2)N1c1ccc(Cl)cc1` (centres undefined) has a TGI greater than 100 µM.
With `Nc1nc(N)c2ncn(-c3ccc(Cl)cc3)c2n1` the TGI was greater than 100 µM.
`Cc1ccc([N+](=O)[O-])cc1S(=O)(=O)Nc1ccc(C2=NNC(c3ccccc3)C2)cc1` (centres undefined) showed a TGI of 71.5 µM.
For `COc1cc(C(=O)N(Cc2cccnc2)C(=S)N(Cc2cccnc2)C(=O)c2cc(OC)c(OC)c(OC)c2)cc(OC)c1OC`, the TGI was greater than 100 µM.
For `COc1cc(CNCc2cc(OC)c(OC)c(OC)c2)cc(OC)c1OC`, the TGI was greater than 10 µM.
For `Cc1ccc2c(c1)C(C(=O)N[C@@H]1C(=O)N3[C@@H]1SC(C)(C)[C@@H]3C(=O)O)OCCC2` (some centres undefined), the TGI was greater than 100 µM.
`CCOCc1nc2c(OC)cc(-c3nc4ccc(N5CCN(C)CC5)cc4[nH]3)c(OC)c2[nH]1` was tested, and the TGI was 41.8 µM.
With `O=C(N/N=C\c1cccc2c([N+](=O)[O-])cccc12)Nc1ccccc1` the TGI was 26.4 µM.
`CC(=O)OCC12C(=O)C[C@@H](C)C3(CC(c4ccoc4)OC3=O)C1CCC(OC(C)=O)C21CO1` (some centres undefined) showed a TGI greater than 100 µM.
Compound `CON(C)C(=O)CNC(=O)OCC1c2ccccc2-c2ccccc21` has a TGI greater than 100 µM.
For `Cc1cn(C2CC(N(O)Cc3ccccc3)C(CO[Si](C)(C)C(C)(C)C)O2)c(=O)[nH]c1=O` (centres undefined), the GI50 was 32.6 µM and 12.3 µM and the TGI was > 100 µM and 24.9 µM.
`O=C(NI1OC(=O)c2ccccc21)c1ccc(Cl)cc1` showed a TGI greater than 100 µM.
`O=C(O)Cc1cccc2c(=O)c3ccccc3oc12` gave a TGI greater than 100 µM.
With `CC(=O)OC(/C=C/c1ccccc1)=C(OC(C)C)/C1=C(\c2ccccc2)SCCCSC1=O` the TGI was greater than 100 µM.
Work on `COc1cccc(-c2ccc3c4c2O[C@H]2C(=O)CC[C@@]5(O)[C@@H](C3)N(CC3CC3)CC[C@]425)c1` yielded a TGI of 28.3 µM.
In the case of `COc1cc(Cn2c3c(c4cc(O)ccc42)Cc2ccccc2C3=O)cc(OC)c1`, the TGI was greater than 100 µM.
`O=C1/C(=C/c2ccc([N+](=O)[O-])cc2)C(=O)N(c2ccccc2)C1c1ccccc1` (centres undefined) showed a TGI greater than 10 µM.
`NC(N)=NCCC[C@H](N)C(=O)NCC(=O)N[C@@H](CC(=O)O)c1ncc(NC(=O)C(F)(F)F)o1` showed a TGI greater than 25 µM.
Work on `Cc1cc(S(=O)(=O)N=C2N(Cc3ccccc3)CCN2Cc2ccccc2)c(S)cc1Cl` yielded a TGI of 47.4 µM.
In the case of `CCCN1CCC(=O)N(CCC(F)(F)C(F)(F)C(F)(F)C(F)(F)C(F)(F)C(F)(F)F)C1=S`, the TGI was greater than 100 µM.
For `CSc1ccc2c(cc1=O)[C@@H](NC(=O)c1ccc(N)cc1)CCc1cc(O)c(O)c(O)c1-2`, the TGI was 33.8 µM and > 100 µM.
`O=C(c1ccc(N=Cc2ccccc2O)cc1)c1ccc(N=Cc2ccccc2O)cc1` gave a TGI greater than 100 µM.
In the case of `Cn1cc(NC(=O)c2cc(NC(=O)CN=C(N)N)cn2C)cc1C(=O)NCCC(=N)N`, the TGI was greater than 100 µM.
For `O=Cc1c(C(=O)O)[nH]c(=O)[nH]c1=O`, the TGI was greater than 100 µM.
With `CCOC(=O)c1cc(C(O)P2(=O)N(CC(C)(C)C)[C@@H]3CCCC[C@H]3N2CC(C)(C)C)cn1C(=O)OC(C)(C)C` (some centres undefined) the TGI was 28.7 µM.
`Cc1cccc(N=NC(=O)NNc2cccc(C)c2C)c1C` showed a TGI greater than 100 µM.
`COc1cc(/C=C2/C[C@H]3[C@@H]4CC=C5C[C@@H](O)CC[C@]5(C)[C@H]4CC[C@]3(C)NC2=O)cc(OC)c1OC` was tested, and the TGI was 29.8 µM.
For `Nc1cc2[nH]c(=O)c(=O)[nH]c2cc1N`, the TGI was greater than 100 µM.
For `O=C1C=C(C2=CC(=O)C(=O)c3ccccc32)c2ccccc2C1=O`, the TGI was greater than 100 µM.
For `C[N+](C)(C)CC1CCCCCCCCCCC1=O` (centres undefined), the TGI was greater than 100 µM.
`CCN(CC)CCNc1nc2ccc([N+](=O)[O-])cc2[n+]([O-])n1` showed a TGI greater than 100 µM.
Work on `Cc1c(S(=O)(=O)/N=C(\NO)Nc2ccc(Cl)c(Cl)c2)sc2ccc(Cl)cc12` yielded a TGI of 37.8 µM.
`NN/C(=N\S(=O)(=O)c1cc2ccccc2s1)Nc1ccc(Cl)cc1` gave a TGI of 32.1 µM.

The compounds below were run on UACC-62 melanoma (assay: NCI anticancer screen, dose series, 48 h).
For `COc1cc(/C=C2\C(=O)N(c3ccccc3)C(c3ccccc3)S2(=O)=O)cc(OC)c1OC` (centres undefined), the TGI was greater than 100 µM.
With `COc1ccc2ccccc2c1/C=C/C(=O)c1ccccc1` the TGI was 9.35 µM.
Compound `O=C1CSC(c2cccc(Oc3ccccc3)c2)N1c1ccc(Cl)cc1` (centres undefined) has a TGI of 34.2 µM.
For `Nc1nc(N)c2ncn(-c3ccc(Cl)cc3)c2n1`, the TGI was greater than 100 µM.
`Cc1ccc([N+](=O)[O-])cc1S(=O)(=O)Nc1ccc(C2=NNC(c3ccccc3)C2)cc1` (centres undefined) was tested, and the TGI was 24.3 µM.
For `COc1cc(C(=O)N(Cc2cccnc2)C(=S)N(Cc2cccnc2)C(=O)c2cc(OC)c(OC)c(OC)c2)cc(OC)c1OC`, the TGI was 73.9 µM.
With `COc1cc(CNCc2cc(OC)c(OC)c(OC)c2)cc(OC)c1OC` the TGI was greater than 10 µM.
In the case of `Cc1ccc2c(c1)C(C(=O)N[C@@H]1C(=O)N3[C@@H]1SC(C)(C)[C@@H]3C(=O)O)OCCC2` (some centres undefined), the TGI was greater than 100 µM.
`CCOCc1nc2c(OC)cc(-c3nc4ccc(N5CCN(C)CC5)cc4[nH]3)c(OC)c2[nH]1` showed a TGI of 34.6 µM.
With `O=C(N/N=C\c1cccc2c([N+](=O)[O-])cccc12)Nc1ccccc1` the TGI was 24.4 µM.
Work on `CC(=O)OCC12C(=O)C[C@@H](C)C3(CC(c4ccoc4)OC3=O)C1CCC(OC(C)=O)C21CO1` (some centres undefined) yielded a TGI greater than 100 µM.
Work on `CON(C)C(=O)CNC(=O)OCC1c2ccccc2-c2ccccc21` yielded a TGI greater than 100 µM.
For `Cc1cn(C2CC(N(O)Cc3ccccc3)C(CO[Si](C)(C)C(C)(C)C)O2)c(=O)[nH]c1=O` (centres undefined), the TGI was 26 µM and 30 µM.
For `O=C(NI1OC(=O)c2ccccc21)c1ccc(Cl)cc1`, the TGI was greater than 100 µM.
For `O=C(O)Cc1cccc2c(=O)c3ccccc3oc12`, the TGI was 77.2 µM.
With `CC(=O)OC(/C=C/c1ccccc1)=C(OC(C)C)/C1=C(\c2ccccc2)SCCCSC1=O` the TGI was greater than 100 µM.
Compound `COc1cccc(-c2ccc3c4c2O[C@H]2C(=O)CC[C@@]5(O)[C@@H](C3)N(CC3CC3)CC[C@]425)c1` has a TGI of 32.7 µM.
For `COc1cc(Cn2c3c(c4cc(O)ccc42)Cc2ccccc2C3=O)cc(OC)c1`, the TGI was greater than 100 µM.
`O=C1/C(=C/c2ccc([N+](=O)[O-])cc2)C(=O)N(c2ccccc2)C1c1ccccc1` (centres undefined) was tested, and the TGI was greater than 10 µM.
In the case of `NC(N)=NCCC[C@H](N)C(=O)NCC(=O)N[C@@H](CC(=O)O)c1ncc(NC(=O)C(F)(F)F)o1`, the TGI was greater than 25 µM.
For `Cc1cc(S(=O)(=O)N=C2N(Cc3ccccc3)CCN2Cc2ccccc2)c(S)cc1Cl`, the TGI was greater than 100 µM.
With `CCCN1CCC(=O)N(CCC(F)(F)C(F)(F)C(F)(F)C(F)(F)C(F)(F)C(F)(F)F)C1=S` the TGI was greater than 100 µM.
For `CSc1ccc2c(cc1=O)[C@@H](NC(=O)c1ccc(N)cc1)CCc1cc(O)c(O)c(O)c1-2`, the GI50 was 21.5 µM and 7.58 µM and the TGI was greater than 100 µM.
For `O=C(c1ccc(N=Cc2ccccc2O)cc1)c1ccc(N=Cc2ccccc2O)cc1`, the TGI was greater than 100 µM.
For `Cn1cc(NC(=O)c2cc(NC(=O)CN=C(N)N)cn2C)cc1C(=O)NCCC(=N)N`, the TGI was greater than 100 µM.
With `O=Cc1c(C(=O)O)[nH]c(=O)[nH]c1=O` the TGI was greater than 100 µM.
Work on `CCOC(=O)c1cc(C(O)P2(=O)N(CC(C)(C)C)[C@@H]3CCCC[C@H]3N2CC(C)(C)C)cn1C(=O)OC(C)(C)C` (some centres undefined) yielded a TGI of 28.6 µM.
Compound `Cc1cccc(N=NC(=O)NNc2cccc(C)c2C)c1C` has a TGI greater than 100 µM.
In the case of `COc1cc(/C=C2/C[C@H]3[C@@H]4CC=C5C[C@@H](O)CC[C@]5(C)[C@H]4CC[C@]3(C)NC2=O)cc(OC)c1OC`, the TGI was 75.4 µM.
In the case of `Nc1cc2[nH]c(=O)c(=O)[nH]c2cc1N`, the TGI was greater than 100 µM.
`O=C1C=C(C2=CC(=O)C(=O)c3ccccc32)c2ccccc2C1=O` showed a TGI greater than 100 µM.
With `C[N+](C)(C)CC1CCCCCCCCCCC1=O` (centres undefined) the TGI was greater than 100 µM.
Work on `CCN(CC)CCNc1nc2ccc([N+](=O)[O-])cc2[n+]([O-])n1` yielded a TGI of 35 µM.
With `Cc1c(S(=O)(=O)/N=C(\NO)Nc2ccc(Cl)c(Cl)c2)sc2ccc(Cl)cc12` the TGI was 37.2 µM.
Work on `NN/C(=N\S(=O)(=O)c1cc2ccccc2s1)Nc1ccc(Cl)cc1` yielded a TGI of 35.5 µM.

The compounds below were run on DU-145 prostate (assay: NCI anticancer screen, dose series, 48 h).
In the case of `COc1cc(/C=C2\C(=O)N(c3ccccc3)C(c3ccccc3)S2(=O)=O)cc(OC)c1OC` (centres undefined), the TGI was greater than 100 µM.
With `COc1ccc2ccccc2c1/C=C/C(=O)c1ccccc1` the TGI was 8.89 µM.
Work on `O=C1CSC(c2cccc(Oc3ccccc3)c2)N1c1ccc(Cl)cc1` (centres undefined) yielded a TGI greater than 100 µM.
`Nc1nc(N)c2ncn(-c3ccc(Cl)cc3)c2n1` was tested, and the TGI was greater than 100 µM.
In the case of `Cc1ccc([N+](=O)[O-])cc1S(=O)(=O)Nc1ccc(C2=NNC(c3ccccc3)C2)cc1` (centres undefined), the TGI was 92 µM.
`COc1cc(C(=O)N(Cc2cccnc2)C(=S)N(Cc2cccnc2)C(=O)c2cc(OC)c(OC)c(OC)c2)cc(OC)c1OC` showed a TGI greater than 100 µM.
For `COc1cc(CNCc2cc(OC)c(OC)c(OC)c2)cc(OC)c1OC`, the TGI was greater than 10 µM.
In the case of `Cc1ccc2c(c1)C(C(=O)N[C@@H]1C(=O)N3[C@@H]1SC(C)(C)[C@@H]3C(=O)O)OCCC2` (some centres undefined), the TGI was greater than 100 µM.
Compound `CCOCc1nc2c(OC)cc(-c3nc4ccc(N5CCN(C)CC5)cc4[nH]3)c(OC)c2[nH]1` has a TGI greater than 100 µM.
`O=C(N/N=C\c1cccc2c([N+](=O)[O-])cccc12)Nc1ccccc1` was tested, and the TGI was 66.1 µM.
Work on `CC(=O)OCC12C(=O)C[C@@H](C)C3(CC(c4ccoc4)OC3=O)C1CCC(OC(C)=O)C21CO1` (some centres undefined) yielded a TGI greater than 100 µM.
`CON(C)C(=O)CNC(=O)OCC1c2ccccc2-c2ccccc21` was tested, and the TGI was greater than 100 µM.
In the case of `Cc1cn(C2CC(N(O)Cc3ccccc3)C(CO[Si](C)(C)C(C)(C)C)O2)c(=O)[nH]c1=O` (centres undefined), the TGI was > 100 µM and 32 µM.
Compound `O=C(NI1OC(=O)c2ccccc21)c1ccc(Cl)cc1` has a TGI greater than 100 µM.
Compound `O=C(O)Cc1cccc2c(=O)c3ccccc3oc12` has a TGI greater than 100 µM.
`CC(=O)OC(/C=C/c1ccccc1)=C(OC(C)C)/C1=C(\c2ccccc2)SCCCSC1=O` was tested, and the TGI was greater than 100 µM.
`COc1cccc(-c2ccc3c4c2O[C@H]2C(=O)CC[C@@]5(O)[C@@H](C3)N(CC3CC3)CC[C@]425)c1` gave a TGI of 63.4 µM.
